How the values were obtained:
[1] = molecular target: T1, human liver GK (GST-hLGK1) (Homo sapiens, UniProt P35557); experiment: Measurement of GK activation value; type: biochemical; settings: GST-hLGK1 6 μg/mL, 5 mmol/L D-glucose, 50 μmol/L Mant-ATP, 60 min at 37° C.; concentration at midpoint between maximum activity value and control activity value
T1 construct: with a BamHI site added to immediately before the initiation codon; made in house; host or cells: Escherichia coli BL21 (Stratagene), plasmid pGEX6P-2/hLGK1
T1 sequence (P35557 1-464 isoform P35557-3): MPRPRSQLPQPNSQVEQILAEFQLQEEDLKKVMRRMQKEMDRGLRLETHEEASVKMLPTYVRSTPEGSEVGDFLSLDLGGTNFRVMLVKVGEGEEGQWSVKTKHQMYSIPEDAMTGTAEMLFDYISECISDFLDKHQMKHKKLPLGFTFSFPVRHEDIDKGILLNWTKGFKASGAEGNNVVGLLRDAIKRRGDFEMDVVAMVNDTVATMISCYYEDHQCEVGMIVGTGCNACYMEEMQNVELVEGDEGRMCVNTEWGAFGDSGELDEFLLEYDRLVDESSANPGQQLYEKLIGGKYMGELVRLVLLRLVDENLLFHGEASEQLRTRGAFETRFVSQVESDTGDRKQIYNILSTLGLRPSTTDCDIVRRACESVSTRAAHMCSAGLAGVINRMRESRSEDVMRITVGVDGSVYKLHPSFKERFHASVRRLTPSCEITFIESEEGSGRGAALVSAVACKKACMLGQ
Protocol: GK enzyme reactions were performed in 50 mmol/L HEPES pH 7.4, 200 mmol/L KCl, 5 mmol/L MgCl2, 2 mmol/L DTT, containing 50 μmol/L 2′-(or -3′)-O—(N-methylanthraniloyl)adenosine 5′-triphosphate (Mant-ATP) (Jena Bioscience GmbH), 5 mmol/L D-glucose, 5% DMSO and 6 μg/mL GST-hLGK1 obtained in Reference Example 2A in a total volume 50 μL. The reactions were performed in 384 well black plates (Nalge Nunc International K.K.). Prior to the reaction, the enzyme and test compound were incubated for 10 min at 37° C., and 25 mM D-glucose solution (10 μL) was added to start the reaction.
After the incubation for 60 min at 37° C., the reaction was quenched by adding 25 μL of a quenching solution (containing 200 mM HEPES (pH 7.4), 20 mM MgCl2, 200 mM EDTA, 0.03% Triton-X 100, 0.3% Coating 3 reagent (Caliper Life Sciences, Inc.)).
Mant-ATP (substrate, 2′- (or -3′)-O—(N-methylanthraniloyl) adenosine 5′-triphosphate) and Mant-ADP (reaction resultant product) were separated from each well after the reaction by a microchip type capillary electrophoresis apparatus 250 HTS (Caliper Life Sciences, Inc.). The reaction rate [(reaction resultant product peak height)/(reaction resultant product peak height+substrate peak height)×100(%)] was calculated from the ratio of the substrate peak height and reaction resultant product peak height obtained by fluorescence detection (excitation wavelength 355 nm, measurement wavelength 460 nm) and used as the index of GK activity.
As a control group, the reaction rate was calculated in the same manner as above without the test compounds.
The percentage obtained by dividing the reaction rate of the well added with each concentration of the test compound (test compound addition group) by the reaction rate of the control group was taken as the GK activity value, and the concentration of the test compound at the midpoint between the maximum activity value of the test compound addition group and the control group activity value is shown as EC50 value.

Row | SMILES | EC50 [1] | melting point
1 | CC(CO)Oc1cc(Oc2ccc(S(C)(=O)=O)cc2)cc2cc(C3=NCC(CC(N)=O)S3)[nH]c12 (stereo not shown) [Example 17, 2-(2-{7-(2-Hydroxy-1-methylethoxy)-5-[4-(methylsulfonyl)phenoxy]-1H-indol-2-yl}-4,5-dihydro-1,3-thiazol-5-yl)acetamide] | 0.048 µM | 137 to 142 °C
2 | COc1cc(Oc2ccc(S(C)(=O)=O)nc2)cc2cc(C3=NCC(CC(=O)NC[C@H](C)O)S3)[nH]c12 (stereo partly drawn) [Example 80, N-[(2S)-2-Hydroxypropyl]-2-[2-(7-methoxy-5-{[6-(methylsulfonyl)pyridin-3-yl]oxy}-1H-indol-2-yl)-4,5-dihydro-1,3-thiazol-5-yl]acetamide] | 0.037 µM | 185 to 186 °C
3 | Cn1ccnc1COc1cc(Oc2ccc(S(C)(=O)=O)cc2)cc2cc(C3=NCC(CC(N)=O)S3)[nH]c12 (stereo not shown) [Example 11, 2-(2-{7-[(1-Methyl-1H-imidazol-2-yl)methoxy]-5-[4-(methylsulfonyl)phenoxy]-1H-indol-2-yl}-4,5-dihydro-1,3-thiazol-5-yl)acetamide] | 0.052 µM | 130 to 131 °C
4 | CC(CO)Oc1cc(Oc2ccc(S(C)(=O)=O)cc2)cc2cc(C3=NCC(CCO)S3)[nH]c12 (stereo not shown) [Example 16, 2-({2-[5-(2-Hydroxyethyl)-4,5-dihydro-1,3-thiazol-2-yl]-5-[4-(methylsulfonyl)phenoxy]-1H-indole-7-yl}oxy)propan-1-ol] | 0.033 µM | 165 to 169 °C
5 | COc1cc(Oc2ccc(S(C)(=O)=O)nc2)cc2cc(C3=NCC(CC(=O)N4CCOCC4)S3)[nH]c12 (stereo not shown) [Example 82, 7-Methoxy-5-{[6-(methylsulfonyl)pyridin-3-yl]oxy}-2-{5-[2-(morpholin-4-yl)-2-oxoethyl]-4,5-dihydro-1,3-thiazol-2-yl}-1H-indole] | 0.042 µM | 148 to 149 °C
6 | COCCNC(=O)CC1CN=C(c2cc3cc(Oc4ccc(S(C)(=O)=O)nc4)cc(OC)c3[nH]2)S1 (stereo not shown) [Example 78, N-(2-Methoxyethyl)-2-[2-(7-methoxy-5-{[6-(methylsulfonyl)pyridin-3-yl]oxy}-1H-indol-2-yl)-4,5-dihydro-1,3-thiazol-5-yl]acetamide] | 0.037 µM | 175 to 176 °C
7 | CNC(=O)CC1CN=C(c2cc3cc(Oc4ccc(S(C)(=O)=O)nc4)cc(OC)c3[nH]2)S1 (single isomer, unassigned) [Example 31, 2-[2-(7-Methoxy-5-{[6-(methylsulfonyl)pyridin-3-yl]oxy}-1H-indol-2-yl)-4,5-dihydro-1,3-thiazol-5-yl]-N-methylacetamide] | 0.028 µM | 196 to 197 °C
8 | COc1cc(Oc2ccc(S(C)(=O)=O)nc2)cc2cc(C3=NCC(CC(=O)NCC(C)(C)O)S3)[nH]c12 (single isomer, unassigned) [Example 74] | 0.028 µM | 173 to 174 °C
